Measurements as given in US6828320B2, “Heterocyclic compounds” (SmithKline Beecham Corporation, priority 1996, dated 2004).
Where a name gives a salt, the structure may show the parent alone. Read-outs that look alike come from different tables or passages of the source.

Assays:
[1] = biological target: T1, c-erbB-4 (baculovirus expressed, recombinant intracellular domain) (Homo sapiens, UniProt Q15303); test: Substrate phosphorylation assay, c-erbB-4; format: biochemical
T1 construct: baculovirus expressed, recombinant constructs of the intracellular domains of c-erbB-2 and c-erbB-4; made in house
Method: (§1) The substrate phosphorylation assays use baculovirus expressed, recombinant constructs of the intracellular domains of c-erbB-2 and c-erbB-4 that are constitutively active and EGFr isolated from solubilised A431 cell membranes. The method measures the ability of the isolated enzymes to catalyse the transfer of the γ-phosphate from ATP onto tyrosine residues in a biotinylated synthetic peptide (Biotin-[…]. […] The reaction is stopped by the addition of EDTA (final concentration 0.15 mM) and a sample is transferred to a streptavidin-coated 96-well plate. The plate is washed and level of phosphotyrosine on the peptide is determined using a Europium-labelled antiphosphotyrosine antibody and quantified with a time-resolved fluorescence technique.

[2] = biological target: T2, c-erbB-2 (baculovirus expressed, recombinant intracellular domain) (Homo sapiens, UniProt P04626); test: Substrate phosphorylation assay, c-erbB-2; format: biochemical
T2 construct: baculovirus expressed, recombinant constructs of the intracellular domains of c-erbB-2 and c-erbB-4; made in house
Method: as §1

[3] = test system: HB4a cell line transfected with ras; test: Cell proliferation assay, HB4a ras; format: cell-based, human; settings: Homo sapiens, HB4a, 96 h, read-out: Cell Proliferation HB4a ras
[4] = biological target: HB4a cell line transformed by over-expression of c-erbB-2 (Homo sapiens, UniProt P04626); test: Cell proliferation assay, HB4a erbB-2; format: cell-based
Method: The cell proliferation assay uses an immortalised human breast epithelial cell line (HB4a) which has been transformed by over-expression of c-erbB-2. Growth of these cells in low serum is dependent upon the c-erbB-2 tyrosine kinase activity. […] Cells are plated at 3000/ well in 96-well plates in 0.1 ml medium and allowed to attach overnight. test compound is added in 0.1 ml medium, with a final concentration of 0.5% DMSO, and the plates incubated for 4 days at 37° C. The cells are then examined microscopically for evidence of morphological detransformation and cell mass is estimated by staining with methylene blue and measuring the absorbance at 620 nm. […] Activity against a range of naturally occurring EGFr or c-erbB-2 over-expressing human tumour cell lines (BT474-breast, HN5-head and neck, N87-gastric and Calu3-lung) is assessed with selected compounds by the same methodology.

[5] = biological target: T3, EGFr isolated from solubilised A431 cell membranes (Homo sapiens, UniProt P00533); test: Substrate phosphorylation assay, EGFr; format: biochemical
T3 construct: EGFr isolated from solubilised A431 cell membranes; endogenous in cells; host or cells: A431 cell membranes (solubilised)
Method: as §1

[6] = read-out: Substrate Phosphorylation erbB-2
[7] = 4 days at 37° C., methylene blue staining, general toxicity control
[8] = 4 days at 37° C., methylene blue staining; read-out: Cell Proliferation HB4a erbB-2
[9] = 30 minutes, room temperature, ATP and peptide at Km concentrations

T2 sequence (P04626 676-1255 limits assumed): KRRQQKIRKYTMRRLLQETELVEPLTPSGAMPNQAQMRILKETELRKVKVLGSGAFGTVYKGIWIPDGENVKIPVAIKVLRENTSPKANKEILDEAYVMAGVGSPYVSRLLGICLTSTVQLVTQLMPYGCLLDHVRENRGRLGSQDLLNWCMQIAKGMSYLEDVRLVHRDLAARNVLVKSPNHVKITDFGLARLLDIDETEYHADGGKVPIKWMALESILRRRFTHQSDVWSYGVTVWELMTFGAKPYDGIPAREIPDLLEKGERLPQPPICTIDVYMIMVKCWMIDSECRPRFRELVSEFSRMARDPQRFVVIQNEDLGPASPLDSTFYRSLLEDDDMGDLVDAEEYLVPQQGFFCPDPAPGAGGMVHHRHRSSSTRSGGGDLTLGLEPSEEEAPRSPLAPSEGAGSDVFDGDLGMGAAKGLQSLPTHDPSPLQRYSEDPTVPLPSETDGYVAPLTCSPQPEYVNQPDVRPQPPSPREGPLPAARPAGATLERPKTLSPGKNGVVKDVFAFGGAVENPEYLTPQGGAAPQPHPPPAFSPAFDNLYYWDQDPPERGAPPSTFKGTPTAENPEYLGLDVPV
T3 sequence (P00533 25-1210): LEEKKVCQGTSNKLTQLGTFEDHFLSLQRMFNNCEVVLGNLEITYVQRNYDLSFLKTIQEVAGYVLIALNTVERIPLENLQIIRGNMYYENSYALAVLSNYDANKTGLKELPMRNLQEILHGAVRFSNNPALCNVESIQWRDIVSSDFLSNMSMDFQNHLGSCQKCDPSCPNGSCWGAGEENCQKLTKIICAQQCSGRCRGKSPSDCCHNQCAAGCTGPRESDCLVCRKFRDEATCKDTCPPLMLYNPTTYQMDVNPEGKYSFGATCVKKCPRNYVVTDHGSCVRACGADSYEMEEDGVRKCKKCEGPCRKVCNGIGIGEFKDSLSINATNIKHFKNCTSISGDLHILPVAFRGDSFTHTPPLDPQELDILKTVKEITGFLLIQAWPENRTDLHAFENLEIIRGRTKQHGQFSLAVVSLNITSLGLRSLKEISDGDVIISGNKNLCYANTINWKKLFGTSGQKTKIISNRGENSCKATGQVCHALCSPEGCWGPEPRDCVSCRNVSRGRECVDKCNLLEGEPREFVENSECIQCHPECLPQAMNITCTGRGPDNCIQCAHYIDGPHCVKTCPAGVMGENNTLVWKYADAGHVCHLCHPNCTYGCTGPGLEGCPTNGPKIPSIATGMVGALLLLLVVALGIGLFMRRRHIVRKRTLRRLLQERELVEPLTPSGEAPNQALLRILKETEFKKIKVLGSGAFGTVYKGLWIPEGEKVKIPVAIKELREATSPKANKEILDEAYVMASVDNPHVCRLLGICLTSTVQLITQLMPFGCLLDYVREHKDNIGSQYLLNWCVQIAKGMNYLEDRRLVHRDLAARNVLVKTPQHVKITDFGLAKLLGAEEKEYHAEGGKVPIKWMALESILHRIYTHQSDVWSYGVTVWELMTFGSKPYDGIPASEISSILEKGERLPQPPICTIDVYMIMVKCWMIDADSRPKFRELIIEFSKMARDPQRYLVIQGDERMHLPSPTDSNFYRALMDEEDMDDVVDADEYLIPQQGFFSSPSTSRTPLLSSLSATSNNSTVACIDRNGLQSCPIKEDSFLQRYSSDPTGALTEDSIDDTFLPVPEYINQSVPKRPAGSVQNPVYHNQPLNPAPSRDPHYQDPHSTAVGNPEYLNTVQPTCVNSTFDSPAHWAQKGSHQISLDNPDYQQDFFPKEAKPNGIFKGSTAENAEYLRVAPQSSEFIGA
T1 sequence (Q15303 676-1308 limits assumed): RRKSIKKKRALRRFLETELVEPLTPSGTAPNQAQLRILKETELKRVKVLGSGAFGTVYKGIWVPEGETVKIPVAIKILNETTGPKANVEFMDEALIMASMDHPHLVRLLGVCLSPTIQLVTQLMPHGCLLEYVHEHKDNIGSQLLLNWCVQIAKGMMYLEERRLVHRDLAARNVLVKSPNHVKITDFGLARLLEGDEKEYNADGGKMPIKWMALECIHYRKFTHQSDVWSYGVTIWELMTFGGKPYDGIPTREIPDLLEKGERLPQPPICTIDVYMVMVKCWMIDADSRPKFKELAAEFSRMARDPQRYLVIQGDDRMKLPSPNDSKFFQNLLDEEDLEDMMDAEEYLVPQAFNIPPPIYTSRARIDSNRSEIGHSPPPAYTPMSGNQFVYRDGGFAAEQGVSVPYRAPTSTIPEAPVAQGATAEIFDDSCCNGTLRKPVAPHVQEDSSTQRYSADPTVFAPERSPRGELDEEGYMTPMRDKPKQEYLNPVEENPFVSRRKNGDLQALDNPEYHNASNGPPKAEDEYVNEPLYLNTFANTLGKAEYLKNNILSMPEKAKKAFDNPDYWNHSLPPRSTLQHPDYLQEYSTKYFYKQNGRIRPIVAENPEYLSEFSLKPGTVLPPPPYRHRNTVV
HB4a cell line transformed by over-expression of c-erbB-2, sequence (P04626 whole entry, stated change not applied): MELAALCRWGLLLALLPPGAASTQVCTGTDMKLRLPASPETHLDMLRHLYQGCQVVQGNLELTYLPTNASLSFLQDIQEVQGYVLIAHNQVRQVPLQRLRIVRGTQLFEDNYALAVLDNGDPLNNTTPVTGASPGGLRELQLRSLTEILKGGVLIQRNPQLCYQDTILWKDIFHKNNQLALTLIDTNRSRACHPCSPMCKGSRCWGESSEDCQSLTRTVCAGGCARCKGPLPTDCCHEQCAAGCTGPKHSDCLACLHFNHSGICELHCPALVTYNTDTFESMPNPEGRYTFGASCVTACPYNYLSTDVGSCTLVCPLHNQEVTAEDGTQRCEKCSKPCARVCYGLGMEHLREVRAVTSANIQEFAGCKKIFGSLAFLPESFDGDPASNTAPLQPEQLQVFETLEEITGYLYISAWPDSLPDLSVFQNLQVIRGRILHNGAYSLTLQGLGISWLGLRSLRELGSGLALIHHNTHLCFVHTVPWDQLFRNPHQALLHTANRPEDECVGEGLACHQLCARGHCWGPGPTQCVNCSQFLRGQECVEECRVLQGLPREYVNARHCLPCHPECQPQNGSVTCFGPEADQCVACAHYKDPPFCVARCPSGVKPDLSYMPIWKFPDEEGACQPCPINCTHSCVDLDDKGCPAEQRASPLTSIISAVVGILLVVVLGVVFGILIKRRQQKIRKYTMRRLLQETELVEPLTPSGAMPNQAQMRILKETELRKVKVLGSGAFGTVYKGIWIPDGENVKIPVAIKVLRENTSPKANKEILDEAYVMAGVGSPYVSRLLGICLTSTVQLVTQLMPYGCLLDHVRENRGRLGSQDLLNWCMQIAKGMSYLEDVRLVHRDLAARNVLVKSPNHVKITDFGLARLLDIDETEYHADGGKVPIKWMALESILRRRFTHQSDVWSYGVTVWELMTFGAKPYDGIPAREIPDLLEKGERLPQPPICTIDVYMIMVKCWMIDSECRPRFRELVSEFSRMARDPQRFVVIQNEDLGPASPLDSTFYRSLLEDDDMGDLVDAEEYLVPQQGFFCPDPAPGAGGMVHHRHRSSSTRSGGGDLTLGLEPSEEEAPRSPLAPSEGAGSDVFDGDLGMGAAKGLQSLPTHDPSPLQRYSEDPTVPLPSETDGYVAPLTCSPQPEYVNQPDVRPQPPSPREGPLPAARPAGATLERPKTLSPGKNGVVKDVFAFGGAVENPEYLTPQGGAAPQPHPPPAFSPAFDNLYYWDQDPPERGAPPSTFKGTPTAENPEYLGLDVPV

| SMILES | IC50 [1] [nM] | IC50 [2, 6] [nM] | IC50 [3, 7] [nM] | GI50 [4, 8] [nM] | IC50 [5, 9] [nM] | IC50 [5] [nM] | IC50 [3] [nM] | IC50 [2] [nM] | GI50 ([4]; read-out: Cell Proliferation HB4a erbB-2; 4 days at 37° C., methylene blue staining) [nM] |
| --- | --- | --- | --- | --- | --- | --- | --- | --- | --- |
| c1ccc(COc2ccc(Nc3ncnc4ccc(-c5ccco5)cc34)cc2)cc1 [Example 1, (4-Benzyloxy-phenyl)-(6-furan-2-yl-quinazolin-4-yl)-amine] | 2500 | 40 |  |  |  |  |  |  |  |
| c1ccc(COc2ccc(Nc3ncnc4ccc(-c5ccccn5)cc34)cc2)cc1 [Example 3, (4-Benzyloxy-phenyl)-(6-(pyridin-2-yl)-quinazolin-4-yl)-amine] | 8600 | 29 | 16000 | 23000 |  |  |  |  |  |
| c1ccc(COc2ccc(Nc3ncnc4ccc(-c5ncccn5)cc34)cc2)cc1 [Example 4, (4-Benzyloxy-phenyl)-(6-(pyrimidin-2-yl)-quinazolin-4-yl)-amine] | 6400 | 35 | 50000 |  |  |  |  |  |  |
| Cn1nncc1-c1ccc2ncnc(Nc3ccc(OCc4ccccc4)cc3)c2c1 [Example 8, (4-Benzyloxy-phenyl)-(6-(3-methyl-1,2,3-triazol-4-yl)-quinazolin-4-yl)-amine] | > 10000 | 150 |  |  |  |  |  |  |  |
| O=Cc1ccc(-c2ccc3ncnc(Nc4ccc(OCc5ccccc5)cc4)c3c2)o1 [Example 9, 5-(4-(4-Benzyloxy-phenylamino)-quinazolin-6-yl)-furan-2-carbaldehyde] | 430 | 24 | 5700 | 550 |  |  |  |  |  |
| Cc1nnc(-c2ccc3ncnc(Nc4ccc(Oc5ccccc5)cc4)c3c2)o1 [Example 20, (4-Phenoxy-phenyl)-(6-(5-methyl-1,3,4-oxadiazol-2-yl)quinazolin-4-yl)-amine hydrochloride] |  | 3 | > 50000 | 6200 | 140 |  |  |  |  |
| Cc1nnc(-c2ccc3ncnc(Nc4ccc5c(cnn5Cc5ccccc5F)c4)c3c2)o1 [Example 21, (1-(2-Fluorobenzyl)-1H-indazol-5-yl)-(6-(5-methyl-1,3,4-oxadiazol-2-yl)-quinazolin-4-yl-amine hydrochloride] |  | 9 | > 50000 | 2300 | 28 |  |  |  |  |
| Cc1nnc(-c2ccc3ncnc(Nc4ccc5c(cnn5Cc5ccccn5)c4)c3c2)o1 [Example 23, (1-Pyridin-2-ylmethyl)-1H-indazol-5-yl)-(6-(5-methyl-1,3,4-oxadiazol-2-yl)-quinazolin-4-yl)-amine hydrochloride] |  | 1 | > 50000 | 31000 | 32 |  |  |  |  |
| Cc1nnc(-c2ccc3ncnc(Nc4ccc5c(cnn5Cc5cc(F)cc(F)c5)c4)c3c2)o1 [Example 31, (1-(3,5-Difluoro-benzyl)-1H-indazol-5-yl)-(6-(5-methyl-1,3,4-oxadiazol-2-yl)-quinazolin-4-yl)-amine hydrochloride] |  |  | > 50000 | 1100 |  | 9 |  |  |  |
| c1ccc(COc2ccc(Nc3ncnc4ccc(-c5nnn[nH]5)cc34)cc2)cc1 [Example 40, (4-Benzyloxy-phenyl)-(6-(1H-tetrazol-5-yl)-quinazolin-4-yl)-amine] | 970 | 3 | > 50000 | > 50000 |  |  |  |  |  |
| Cc1nnc(-c2ccc3ncnc(Nc4ccc5c(cnn5Cc5ccccc5)c4)c3c2)[nH]1 [Example 42, (1-Benzyl-1H-indazol-5-yl)-(6-(5-methyl-1,3,4-triazol-2-yl)-quinazolin-4-yl)-amine] |  | 7 | 20000 | 570 |  |  |  |  |  |
| Cc1cc(-c2ccc3ncnc(Nc4ccc(OCc5ccccc5)cc4)c3c2)on1 [Example 47, (4-Benzyloxy-phenyl)-(-6-(3-methylisoxazol-5-yl)-quinazolin-4-yl)-amine hydrochloride] | 5000 | 490 |  |  |  |  |  |  |  |
| CN(CCS(C)(=O)=O)Cc1ccc(-c2ccc3ncnc(Nc4ccc(OCc5ccccc5)cc4)c3c2)o1 [Example 48, (4-Benzyloxy-phenyl)-(6-(5-(((2-methanesulphonyl-ethyl)-methyl-amino)-methyl)-furan-2-yl)-quinazolin-4-yl)-amine] | 1100 | 38 | 9500 | 80 |  |  |  |  |  |
| CS(=O)(=O)NCCNCc1ccc(-c2ccc3ncnc(Nc4ccc(OCc5ccccc5)cc4)c3c2)o1 [Example 49, N-(2-((5-(4-(4-Benzyloxy-phenylamino)-quinazolin-6-yl)-furan-2-ylmethyl)-amino) -ethyl)-methanesulphonamide dihydrochloride] |  |  |  |  |  |  | 3500 | 33 | 470 |
| NS(=O)(=O)CCNCc1ccc(-c2ccc3ncnc(Nc4ccc(OCc5ccccc5)cc4)c3c2)o1 [Example 50, 2-((5-(4-(4-Benzyloxy-phenylamino)-quinazolin-6-yl)-furan-2-ylmethyl)-amino)-ethanesulphonic acid amide] | 100 | 12 | 7100 | 860 |  |  |  |  |  |
| COC(=O)c1ccc(-c2ccc3ncnc(Nc4ccc(OCc5ccccc5)cc4)c3c2)o1 [Example 51, 5-(4-(4-Benzyloxy-phenylamino)-quinazolin-6-yl)-furan-2-carboxylic acid methyl ester] | 5800 | 20 | 21000 | 38000 |  |  |  |  |  |
| CS(=O)(=O)CCNC(=O)c1ccc(-c2ccc3ncnc(Nc4ccc(OCc5ccccc5)cc4)c3c2)o1 [Example 53, 5-[4-(4-Benzyloxy-phenylamino)-quinazolin-6-yl]-furan-2-carboxylic acid (2-methanesulphonyl-ethyl)-amide hydrochloride] |  |  | 36000 | 1800 | 13 |  |  |  |  |
| CNS(=O)(=O)CCNCc1ccc(-c2ccc3ncnc(Nc4ccc(OCc5ccccc5)cc4)c3c2)o1 [Example 54, 2-((5-(4-(4-Benzyloxy-phenylamino)-quinazolin-6-yl)-furan-2-ylmethyl)-amino)-ethanesulphonic acid methylamide] | 280 | 24 | 7400 | 140 |  |  |  |  |  |
| Cc1noc(-c2ccc3ncnc(Nc4ccc5c(cnn5Cc5ccccc5)c4)c3c2)n1 [Example 55, (1-Benzyl-1H-indazol-5-yl)-(6-(3-methyl-1,2,4-oxadiazol-5-yl)-quinazolin-4-yl)-amine hydrochloride] | 1000 | 10 | 20000 | 2000 |  |  |  |  |  |
| Cc1nc(-c2ccc3ncnc(Nc4ccc(OCc5ccccc5)cc4)c3c2)no1 [Example 56, (4-Benzyloxy-phenyl)-(6-(5-methyl-1,2,4-oxadiazol-3-yl)-quinazolin-4-yl)-amine] | > 10000 | 260 | > 50000 | 1700 |  |  |  |  |  |
| CN(C)CCc1nc(-c2ccc3ncnc(Nc4ccc(OCc5ccccc5)cc4)c3c2)no1 [Example 57, (4-Benzyloxy-phenyl)-(6-(5-(2-dimethylamino-ethyl)-1,2,4-oxadiazol-3-yl)-quinazolin-4-yl)-amine] |  | 83 | 2700 | 1200 |  |  |  |  |  |
| CN(C)Cc1nc(-c2ccc3ncnc(Nc4ccc(OCc5ccccc5)cc4)c3c2)no1 [Example 58, (4-Benzyloxy-phenyl)-(6-(5-(dimethylaminomethyl)-1,2,4-oxadiazol-3-yl)-quinazolin-4-yl)-amine] |  | 6 | 28000 | 8600 |  |  |  |  |  |
| CS(=O)(=O)CCNCc1nc(-c2ccc3ncnc(Nc4ccc5c(cnn5Cc5ccccc5)c4)c3c2)no1 [Example 59, (1-Benzyl-1H-indazol-5-yl)-(6-(5-(((2-methanesulphonyl-ethyl)-amino)-methyl)-1,2,4-oxadiazol-3-yl)-quinazolin-4-yl)-amine] |  |  | 11000 | 790 | 11 |  |  |  |  |
| CS(=O)(=O)Cc1nc(-c2ccc3ncnc(Nc4ccc5c(cnn5Cc5ccccc5)c4)c3c2)no1 [Example 60, (1-Benzyl-1H-indazol-5-yl)-(6-(5-methanesulphonylmethyl-1,2,4-oxadiazol-3-yl)-quinazolin-4-yl)-amine] |  |  | 50000 | 540 | 1900 |  |  |  |  |
| Cc1nc(-c2ccc3ncnc(Nc4ccc5c(cnn5Cc5ccccc5)c4)c3c2)no1 [Example 61] |  |  | 3100 | 500 | 810 |  |  |  |  |
| Cc1nocc1-c1ccc2ncnc(Nc3ccc(OCc4ccccc4)cc3)c2c1 [Example 85, (4-Benzyloxy-phenyl)-(6-(3-methyl-[1,2]oxazol-4-yl)-quinazolin-4-yl)-amine] | 9700 | 130 | 2300 | 2100 |  |  |  |  |  |
